Structures can show the parent of a compound that is named as a salt. Where two headings read alike, the source gives them in different places.

Here are results for 15 compounds from paper PMC5213423, “Identification of a Drug Targeting an Intrinsically Disordered Protein Involved in Pancreatic Adenocarcinoma” (Scientific Reports, 2017).

In data set [1] the target is T1, NUPR1 (Homo sapiens, UniProt O60356).
T1 construct: made in house; host or cells: E. coli
T1 sequence (O60356 1-82): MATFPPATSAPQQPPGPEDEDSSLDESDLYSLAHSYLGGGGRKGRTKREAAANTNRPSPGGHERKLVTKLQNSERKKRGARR
Put plainly: 2D 1H-15N HSQC NMR cross-peak broadening of NUPR1 upon compound addition. Conditions: NUPR1 100 μM : compound 400 μM, 25 °C, pH 4.5. Type of data set: binding. How it is done:
The NMR data were acquired at 25 °C, pH 4.5 (acetate buffer), on a Bruker Avance DRX-500 spectrometer equipped with a triple-resonance probe and z-gradients. All spectra were referenced to external TSP.
The 2D ^1H-^15N heteronuclear single-quantum coherence (HSQC) spectra[42] were acquired in the phase sensitive mode for isolated ^15N-labelled NUPR1 (100 μM) or ^15N-labelled NUPR1 (100 μM) in the presence of the corresponding compound (400 μM). […] Frequency discrimination in the indirect dimensions was achieved by using the echo/antiecho-TPPI method. […] The carrier of the ^1H dimension was set at 8.00 ppm, and that of ^15N at 120 ppm. The spectral widths used were 10 and 35 ppm in the ^1H and ^15N dimensions, respectively. Water signal was suppressed with the WATERGATE sequence. Data were zero-filled to double the number of original points in both dimensions, apodized with shifted squared sine-bell functions in the two dimensions and Fourier transformed with the program TopSpin 1.2. Assignments were taken from those previously reported. The intensity of the signals from each row in the HSQC spectra was measured by using TopSpin 2.1 taking into account, as an internal reference, the intensity of the last residue of NUPR1. Only differences in intensity of a particular residue between spectra of the complex (NUPR1:Compound) and that of isolated NUPR1 larger than 10%, were considered significant.

Data set [2] concerns the target T1, NUPR1. Put plainly: Isothermal titration calorimetry (ITC) of compound binding to NUPR1. As to conditions: 25 °C, 20 mM sodium phosphate pH 7, relative error is 20%. How it is done: Ligand binding to NUPR1 was determined with a high sensitivity isothermal titration calorimeter Auto-iTC200 (MicroCal–Malvern Instruments, Malvern UK). Protein samples and reference solutions were properly degassed and carefully loaded into the calorimetric cells to avoid bubble formation during stirring. Experiments were performed with freshly prepared buffer-exchanged protein solutions, at 25 °C in 20 mM sodium phosphate pH 7. NUPR1 20 μM solution in the calorimetric cell was titrated with 300–400 μM compound solution. A sequence of 19 injections of 2 μL volume was programmed with a stirring speed of 1000 rpm. The heat evolved after each ligand injection was obtained from the integral of the calorimetric signal. The heat due to the binding reaction was obtained as the difference between the reaction heat and the corresponding heat of dilution, the latter estimated as a constant value throughout the experiment, and included as an adjustable parameter in the analysis. Control experiments (compound injected into buffer) were performed under the same experimental conditions. The association constant (Ka) and the enthalpy change (ΔH) of the binding reaction were obtained through non-linear regression of experimental data to a model for a protein with a single ligand binding site. Experiments were performed in replicates and data were analyzed using in-house developed software implemented in Origin 7 (OriginLab, Northampton, MA).

Data set [3] deals with MiaPaCa-2 cells. Put plainly: Colony formation in soft agar (clonogenicity). Type of data set: cell-based, human. As to conditions: 10 μM compound. How it is done: Colony formation assay was performed in order to measure the in vitro survival ability of a single cell to grow into a colony in an anchorage-independent growth environment. Briefly, after treating MiaPaCa-2 cells with either the compounds or DMSO (as control) for 24 and 48 h, they were seeded in DMEM complete media at a density of 7 × 10^3 cells in 6-well plates containing a top layer of 0.7% agar and a bottom layer of 1% agar. Plates were incubated at 37 °C for 3 to 4 weeks and then stained with 0.2% crystal violet. […] Comparisons of treatment outcome were tested for statistical significance by using the t-test.

Data set [4] concerns MiaPaCa-2 cells. Put plainly: Chemograms of Gemcitabine or Oxaliplatin with or without Compound-15.
Protocol: (§1) Cells (10000 cells/well) were plated in 96-well plates with DMEM. Twenty-four hours later, the media were supplemented with 10 μM of Compound and were incubated for another additional six days. Each experiment was performed in duplicate and repeated at least three times. Cell viability was estimated after addition of the CellTiter-Blue viability reagent (Promega, Madrid, Spain) for 1 h according to the protocol provided by the supplier. Cell viability was measured on day 6 and normalized regarding untreated cells rates. Statistical significance was assumed at a p-value lower than 0.05.
In data set [5] the test system is MiaPaCa-2 cells. Put plainly: Cell viability assay (CellTiter-Blue), MiaPaCa-2. As to conditions: MiaPaCa-2, 10 μM of each compound, 6 days, normalized to untreated cells. For orientation: Resazurin is reduced to fluorescent resorufin, in cell work by metabolically active cells.
Protocol: as §1

In general, Kd refers to the concentration at which binding is half-saturated. A high value points to lower affinity. For the compound `CC(C)NCC(O)c1ccc(O)c(O)c1.O=C(O)C(O)C(O)C(=O)O` (single isomer, unassigned; (+)) [Compound-9, (+)-Isoproterenol (+)-bitartrate salt], on NUPR1 [1], the “Residues of NUPR1 with NMR-cross-peak broadening affected by binding” value (“Residues of NUPR1” for short) is listed as “Ser9; Ala10; Leu29; Ala33; Gly38; Thr68”. The compound further showed a Kd on NUPR1 [2] of 4 µM.
For `CC(C)NCC(O)c1ccc(O)c(O)c1.Cl` (single isomer, unassigned; (-)) [compound 5, (-)-Isoproterenol hydrochloride], in that order: “Thr68” and 3.9 µM.
As for `CC(C)(C)c1ccc(C(O)CCCN2CCC(C(O)(c3ccccc3)c3ccccc3)CC2)cc1` (stereo not shown) [Compound-1, Terfenadine], the Kd at NUPR1 [2] came to 5 µM.
As to `OCCN1CCN(CCCN2c3ccccc3Sc3ccc(C(F)(F)F)cc32)CC1` [Compound-2, Fluphenazine dihydrochloride], the “Residues of NUPR1” value on NUPR1 [1] is reported as “Thr68”. Further, binding on NUPR1 [2] was put at a Kd of 2 µM.
In the same order, the values of `Fc1ccc(C(c2ccc(F)cc2)N2CCN(C/C=C/c3ccccc3)CC2)cc1` [Compound-6, Flunarizine dihydrochloride] are “Ala33; Thr68” and 3.1 µM.
For `CCCCN(CCCC)CCC(O)c1cc2c(Cl)cc(Cl)cc2c2cc(C(F)(F)F)ccc12` (stereo not shown) [Compound-7, Halofantrine hydrochloride], in that order: “Thr68” and 3.3 µM.
In the same order, the values of `C[C@H](N)[C@H](O)c1ccc(O)c(O)c1` [Compound-8, Levonordefrin] are “Ala33; Thr68” and 1.5 µM.
As for `CC(C)N1CCN(c2ccc(OCC3COC(Cn4cncn4)(c4ccc(Cl)cc4Cl)O3)cc2)CC1` (stereo not shown) [Compound-11, Terconazole], the “Residues of NUPR1” value at NUPR1 [1] is recorded as “Thr68”.
On to `CC(C)(C)CC(C)(C)c1ccc(OCCOCC[N+](C)(C)Cc2ccccc2)cc1` [Compound-13, Benzethonium chloride], for which the Colony formation entry in the data set with MiaPaCa-2 cells [3] is “completely inhibited colony formation”.
In general, viability refers to a read-out of living cells in per cent, often relative to untreated cells. For `Nc1ccn([C@@H]2O[C@H](CO)[C@@H](O)C2(F)F)c(=O)n1` [Gemcitabine], the IC50 in the data set with MiaPaCa-2 cells [4] (Homo sapiens, MIA PaCa-2, 72 h, read-out: IC50 (concentration reducing cell viability to one half)) was determined as 0.06 µM. For the same compound, in the data set with MiaPaCa-2 cells [4] (Homo sapiens, MIA PaCa-2, read-out: Cell viability), the viability at 0.06 µM turned out to be 41 ± 0.4%.
Turning to `O=C1[O][Pt]2([NH][C@@H]3CCCC[C@H]3[NH]2)[O]C1=O` [Oxaliplatin], the Cell viability in the data set on MiaPaCa-2 cells [5] was determined as 10 ± 2%; with MiaPaCa-2 cells [4] (4 μM Oxaliplatin alone), 53 ± 0.4%. In the data set on MiaPaCa-2 cells [4] (drug alone, MiaPaCa-2, 3 days), this compound registered an IC50 of 4 µM.
Consider `O=C(O)/C=C/c1ccc(O)c(O)c1` [compound 3, Caffeic acid], for which the “Residues of NUPR1” value on NUPR1 [1] was “Ala33; Thr68”. Further, the Kd on NUPR1 [2] worked out at 2 µM.
For `COC(=O)[C@H]1[C@H]2C[C@@H]3c4[nH]c5cc(OC)ccc5c4CCN3C[C@H]2C[C@@H](OC(=O)c2cc(OC)c(OC)c(OC)c2)[C@@H]1OC` [compound 4, Reserpine], in that order: “Thr68” and 3.2 µM.
Regarding `CN(C)CCC(c1ccccc1)c1ccccn1` (stereo not shown) [compound 10, Pheniramine maleate], the “Residues of NUPR1” value at NUPR1 [1] was “Ser9; His62; Thr68”. The compound further yielded a Kd on NUPR1 [2] of 4.3 µM.
In the same order, the values of `CN(C)[C@@H]1C(O)=C(C(N)=O)C(=O)[C@@]2(O)C(O)=C3C(=O)c4c(O)ccc(Cl)c4[C@@](C)(O)[C@H]3C[C@@H]12` [compound 14, Chlortetracycline hydrochloride] are “Ala33; Thr68” and 1.5 µM.
